Test results: US20120016011A1, “RNA Interference Mediated Inhibition of Connective Tissue Growth Factor (CTGF) Gene Expression Using Short Interfering Nucleic Acid (siNA)” (Merck Sharp & Dohme Corp., priority 2009, published 2012)
[invAb] = inverted abasic unit; m = 2'-O-methyl; r = 2'-OH (RNA); f = 2'-fluoro

Legend:
CTGF mRNA [1] = test: CTGF mRNA knockdown (Taqman RT-PCR) after siNA transfection of mouse NIH 3T3 cells; assay type: cell-based; settings: mouse NIH3T3 cells, 10 nM siNA, 24 hrs, average of 3 experiments, vs non-targeting control
Procedure: NIH 3T3 (mouse; ATCC cat# CRL-1658): Cells were cultured at 37° C. in the presence of 5% CO2 and grown in Dulbecco's modified Eagle's medium (DMEM) with 4 mM L-glutamine adjusted to contain 1.5 g/L sodium bicarbonate and 4.5 g/L glucose and supplemented with fetal bovine serum at a final concentration of 10%, 100 μg/mL of streptomycin, and 100 U/mL penicillin.
(§1) Cells were plated in all wells of a tissue-culture treated, 96-well plate at a final count of 5000 cells/well in […], of the appropriate culture media. The cells were cultured for 24 hours after plating at 37° C. in the presence of 5% CO2.
(§2) After 24 hours, complexes containing siNA and RNAiMax were created as follows: A solution of RNAiMax diluted 33-fold in OPTI-MEM was prepared. In parallel, solutions of the siNAs for testing were prepared to a final concentration of 120 nM in OPTI-MEM. After incubation of RNAiMax/OPTI-MEM solution at room temperature for 5 min, an equal volume of the siNA solution and the RNAiMax solution were added together for each of the siNAs.
(§3) This solution was incubated at room temperature for 20 minutes. After incubation, 20 uL of the solution was added to each of the relevant wells. The final concentration of siNA in each well was 10 nM and the final volume of RNAiMax in each well was 0.3 ul.
(§4) The time of incubation with the RNAiMax-siNA complexes was 24 hours and there was no change in media between transfection and harvesting, unless otherwise indicated.
(§5) RNA was extracted from a 96-well plate using the TaqMan® Gene Expression Cells-to-CT™ Kit (Cat# 4399002) with a modified protocol. Briefly, a 60 uL (1 plate) or 110 uL (2 plates) of the Lysis Solution with DNase I was dispensed into each well of the Lysis Buffer Plate (twin.tec full skirt plate). The lysis buffer and stop plates were stored at 4° C. until the cells were washed.
(§6) The plate was spun at 1100 rpm for 5 minutes. The culture medium was aspirated and discarded from the wells of the culture plate. The lysis was performed automatically using a BioMek FX instrument and method. After the Biomek method was completed, the lysis plate was incubated for 2 min. at room temperature. The lysis plate can be stored for 2 hours at 4° C., or at −20° C. or −80° C. for two months.
(§7) Each well of the reverse transcription plate required 10 uL of 2× reverse transcriptase Buffer, 1 uL of 20× reverse transcription enzyme and 2 uL of nuclease-free water. The reverse transcription master mix was prepared by mixing 2× reverse transcription buffer, 20× reverse transcription enzyme mix, and nuclease-free water. 13 uL of the reverse transcription master mix was dispensed into each well of the reverse transcription plate (semi-skirted). A separate reverse transcription plate was prepared for each cell plate. The plate was loaded onto a Biomek NX or Biomek FX Dual -96 and the Biomek method was run. The program is programmed to automatically added 7 uL of lysate from the cell lysis procedure described above into each well of the reverse transcription plate. The plate is sealed and spun on a centrifuge (1000 rpm for 30 seconds) to settle the contents to the bottom of the reverse transcription plate. The plate is placed in a thermocycler at 37° C. for 60 min, 95° C. for 5 min, and 4° C. until the plate is removed from the thermocycler. Upon removal, if not used immediately, the plate was frozen at −20° C.
(§8) A series of probes and primers were used to detect the various mRNA transcripts of the genes of β-Actin (human cell line only), and of CTGF and GAPDH in mouse and human cell lines. All Taqman probes and primers for the experiments here-in described were supplied as pre-validated sets by Applied Biosystems, Inc. (see Table 3).
The assays were performed on an ABI 7900 instrument, according to the manufacturer's instructions. A TaqMan Gene Expression Master Mix (provided in the Cells-to-CT™, Applied Biosystems, Cat # 4399002) was used. […]

CTGF mRNA [2] = test: CTGF mRNA knockdown (Taqman RT-PCR) after siNA transfection of human NHLF cells; assay type: cell-based; settings: 10 nM siNA, 24 hrs, average of 3 experiments, vs non-targeting control
Procedure: NHLF (Normal human lung fibroblasts; Lonza cat# CC-2512): Cells were cultured at 37° C. in the presence of 5% CO2 and grown in Fibroblast Basal Medium (Lonza cat# CC-3132) supplemented with 2% FBS and growth factors (provided with the kit) and 100 μg/mL of streptomycin and 100 U/mL penicillin.
as §1, §2, §3, §4, §5, §6, §7, §8
The assays were performed on an ABI 7900 instrument, according to the manufacturer's instructions. A TaqMan Gene Expression Master Mix (provided in the Cells-to-CT™, Applied Biosystems, Cat # 4399002) was used. The PCR reactions were carried out at 50° C. for 2 min, 95° C. for 20 min followed by 40 cycles at 95° C. for 15 secs and 60° C. for 1 min. […]

Row | Substance | % KD Mouse (CTGF mRNA [1]) [%] | % KD Human (CTGF mRNA [2]) [%]
1 | 48072-DC: siNA duplex; sense SEQ ID NO: 109 B AGuGuGcAcuGccAAAGAu TTB; antisense SEQ ID NO: 110 AUCuuuGGcAGuGcAcAcuUU (sense AGUGUGCACUGCCAAAGAUTT; antisense AUCUUUGGCAGUGCACACUUU; sense: DNA at AGT, 2'-fluoro at CU, [invAb] at 5' end, 3' end, backbone not given here; antisense: sugars from the 5' end rrrfffmmfmmfmfmfmffmm, backbone not given here) | 14 ± 6 | −8 ± 12
2 | 48076-DC: siNA duplex; sense SEQ ID NO: 117 B AcAGuAGcAcAuuAAuuuA TTB; antisense SEQ ID NO: 118 UAAAuuAAuGuGcuAcuGuUU (sense ACAGUAGCACAUUAAUUUATT; antisense UAAAUUAAUGUGCUACUGUUU; sense: DNA at AGT, 2'-fluoro at CU, [invAb] at 5' end, 3' end, backbone not given here; antisense: sugars from the 5' end rrrmffmmfmfmffmffmfmm, backbone not given here) | 84 ± 1 | −3 ± 1
3 | 48059-DC: siNA duplex; sense SEQ ID NO: 83 B AcGAAcucAuuAGAcuAuA TTB; antisense SEQ ID NO: 84 UAUAGucuAAuGAGuucGuUU (sense ACGAACUCAUUAGACUAUATT; antisense UAUAGUCUAAUGAGUUCGUUU; sense: DNA at AGT, 2'-fluoro at CU, [invAb] at 5' end, 3' end, backbone not given here; antisense: sugars from the 5' end rrrmmfffmmfmmmfffmfmm, backbone not given here) | 80 ± 4 | 25 ± 9
4 | 48058-DC: siNA duplex; sense SEQ ID NO: 81 B cAGuGGAAcuAcAuuAGuA TTB; antisense SEQ ID NO: 82 UACuAAuGuAGuuccAcuGUU (sense CAGUGGAACUACAUUAGUATT; antisense UACUAAUGUAGUUCCACUGUU; sense: DNA at AGT, 2'-fluoro at CU, [invAb] at 5' end, 3' end, backbone not given here; antisense: sugars from the 5' end rrrfmmfmfrmffffmffmmm, backbone not given here) | 17 ± 3 | 79 ± 3
5 | 48066-DC: siNA duplex; sense SEQ ID NO: 97 B AcAGuuuAcAcuuGAcAGu TTB; antisense SEQ ID NO: 98 ACUGucAAGuGuAAAcuGuUU (sense ACAGUUUACACUUGACAGUTT; antisense ACUGUCAAGUGUAAACUGUUU; sense: DNA at AGT, 2'-fluoro at CU, [invAb] at 5' end, 3' end, backbone not given here; antisense: sugars from the 5' end rrrmffmmmfmfmmmffmfmm, backbone not given here) | 80 ± 1 | 17 ± 7
6 | 48079-DC: siNA duplex; sense SEQ ID NO: 123 B ucAAGAccuGuGccuGccA TTB; antisense SEQ ID NO: 124 UGGcAGGcAcAGGucuuGAUU (sense UCAAGACCUGUGCCUGCCATT; antisense UGGCAGGCACAGGUCUUGAUU; sense: DNA at AGT, 2'-fluoro at CU, [invAb] at 5' end, 3' end, backbone not given here; antisense: sugars from the 5' end rrrfmmmfmfmmmffffmmmm, backbone not given here) | 17 ± 6 | 21 ± 11
